According to article PMC12691742, “Anti-Cancer Outcome of Glucocorticoid Receptor Transrepression by Synephrine Derivatives in Hematological Malignancies” (International Journal of Molecular Sciences, 2025):
Entries after “also recorded” stand apart in the source; their conditions may differ.

Assays:
[1] = system: DDIT4 expression in K562 cells; test: Q-PCR of DDIT4 in K562 cells; assay type: cell-based; conditions: 24 h, 8S-E3 25 µM
Excerpt: (§1) Q-PCR results were confirmed by Western blot analysis of the level of GR phosphorylated by Ser211, known as a crucial protein modification for GR TA realization because of its binding to short cysteine-rich fragments of the coactivator CREB-binding protein [41].
(§2) Figure 3 Effects of synephrine derivatives on GR transactivation in Granta lymphoma and K562 leukemia cells. (A) Q-PCR analysis of FKBP51, GILZ, and DDIT4 mRNA expression in K562 and Granta cells. […] The Q-PCR results were normalized to the expression of the housekeeping gene RPL27 and are presented as fold changes compared to the control. The mean ± SD was calculated for three individual samples/condition (n = 3). Statistically significant differences compared to the control: * p < 0.05, ** p < 0.01. (B) The levels of the nuclear fraction of phospho-GR (Ser211) were determined using Western blot analysis (n = 3; characteristic images are presented in the figure). Histone H3 was used as a loading control.
(§3) Total RNA isolation from cell cultures and murine bones, reverse transcription, and Q-PCR were performed as described in [36]. Primers were designed using NCBI Primer-BLAST https://www.ncbi.nlm.nih.gov/tools/primer-blast/, accessed on 25 August 2025 (Supplementary Table S1). Results were normalized to the expression of the housekeeping RPL27 и Rpl27 genes. The experiments were performed in triplicate.

[2] = system: leukemia and lymphoma cells (Granta, K562); parameters: method as in PMID 39858397; conditions: leukemia and lymphoma cells; read-out: cell viability IC50; cited from earlier work
[3] = system: DDIT4 expression in Granta cells; test: Q-PCR of DDIT4 in Granta cells; assay type: cell-based; conditions: 24 h, 8S-E3 25 µM
Excerpt: as §1, §2, §3

[4] = system: GR phosphorylated by Ser211 in K562 and Granta cells; test: Western blot of nuclear phospho-GR (Ser211); assay type: cell-based; conditions: 10 h; Dex 10 µM, 4S-C2 50 µM, 8S-E3 50 µM, 10S-E2 15 µM, 13S-G2 25 µM
Experimental: as §2
Western blot analysis was performed as previously described. Proteins were resolved using SDS-PAGE. Membranes were blocked with 5% nonfat milk solution and then incubated with primary antibodies against phosphorylated GR (pGR, Ser211) (“Santa Cruz Biotechnology”, Santa Cruz, CA, USA) overnight at 4 °C. To verify equal protein loading and adequate transfer, the membranes were probed with Histone H3 antibodies (“Cell Signaling”, Boston, MA, USA). Goat anti-rabbit IgGs (“Jackson Immuno Research”, West Grove, PA, USA) were used as secondary antibodies. Signals were detected using ECL reagent and an ImageQuant LAS4000 system (“GE HealthCare”, Chicago, IL, USA). ImageJ 1.54h software was used for densitometry. The experiments were performed in triplicate.
7 K562, pGR nuclear 5 Granta, pGR nuclear
Supplementary Figure S 22. Quantification of Western blot analysis. K562 and Granta cells […]
μM) and 13S-G2 (25 μ M) for 10 h. Quantification of Western blot anal ysis of p- GR protein levels was done usin g Im a ge J f ree so ftwar e. Statisticall y significant diff eren ces as compared to control: […]

[5] = biological target: T1, GR (Homo sapiens, UniProt P04150); test: GR radioligand binding assay, competition with [3H]Dex in K562 cells
T1 construct: endogenous in cells; host or cells: K562
T1 sequence (P04150 1-777): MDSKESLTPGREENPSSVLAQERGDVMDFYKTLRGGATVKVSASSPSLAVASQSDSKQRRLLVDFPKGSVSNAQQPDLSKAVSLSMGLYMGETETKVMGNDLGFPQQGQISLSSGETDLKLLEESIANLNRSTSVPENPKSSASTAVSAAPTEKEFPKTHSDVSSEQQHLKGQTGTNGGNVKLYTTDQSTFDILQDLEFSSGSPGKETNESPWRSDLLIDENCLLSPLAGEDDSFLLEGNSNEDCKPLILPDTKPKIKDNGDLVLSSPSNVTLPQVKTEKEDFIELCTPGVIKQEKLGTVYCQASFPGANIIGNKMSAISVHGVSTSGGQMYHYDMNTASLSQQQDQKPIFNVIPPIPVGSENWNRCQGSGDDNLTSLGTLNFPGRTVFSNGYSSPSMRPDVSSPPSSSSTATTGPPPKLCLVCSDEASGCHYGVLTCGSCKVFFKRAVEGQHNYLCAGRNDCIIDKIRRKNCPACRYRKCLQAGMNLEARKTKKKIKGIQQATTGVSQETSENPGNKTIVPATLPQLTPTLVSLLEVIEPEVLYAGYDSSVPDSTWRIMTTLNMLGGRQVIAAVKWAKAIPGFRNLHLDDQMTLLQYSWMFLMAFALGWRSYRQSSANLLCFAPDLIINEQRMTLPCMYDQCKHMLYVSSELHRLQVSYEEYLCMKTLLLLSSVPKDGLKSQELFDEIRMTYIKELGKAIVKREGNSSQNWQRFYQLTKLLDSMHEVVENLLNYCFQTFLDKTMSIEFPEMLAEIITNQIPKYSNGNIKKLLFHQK
Experimental: (A,B). […] The stability of the complex was simulated using molecular dynamics in the GROMACS program. (C) GR binding affinity was estimated using a radioligand binding assay. […] Cell lysate radioactivity was measured using a RackBeta 1215 LC (LKB Wallac, Turku, Finland) spectrometer for 4 min. […] The experiments were performed in triplicate (n = 3).
After 90 min of incubation, the cells were washed twice by centrifugation in cold serum-free medium (1500 rpm, 5 min). The cells were then lysed with RIPA buffer (50 mM Tris (pH 8.0), 150 mM NaCl, 1 mM ethylenediaminetetraacetic acid, 0.1% sodium dodecyl sulfate, 0.5% sodium deoxycholate, 1% triton-X100, 10% glycerin, and protease inhibitor) for 20 min. Lysates were transferred to scintillation liquid, and radioactivity was measured using a RackBeta 1215 LC spectrometer for 4 min. […] IC50 was determined using GraphPad Prism software, Ver.7.0. […] “Top” meant the highest value in dpm and was equal to 100%, while the “bottom” was considered as the lowest value (0%). […] The IC50 values for each ligand were determined by plotting these curves. The experiments were performed in triplicate.

[6] = system: Granta cells; test: Cell cycle analysis by PI flow cytometry in Granta cells; assay type: cell-based; conditions: 24 h, Dex 50 µM, 4S-C2 25 µM, 8S-E3 12.5 µM, 10S-E2 6.25 µM, 13S-G2 1 µM
Experimental: (§4) Figure 5 Pro-apoptotic and anti-cancer effects of synephrine derivatives in vitro and in vivo. (A) Effect of 4S-C2, 8S-E3, 10S-E2, and 13S-G2 on cell cycle progression in K562 and Granta cells after 24 h of incubation. The cells were fixed with ethanol, stained with propidium iodide, and analyzed using flow cytometry. Statistically significant difference compared to control: *—p < 0.05, **—p < 0.01 (n = 3). (B) In vivo anti-cancer activity was evaluated using the transplantable P388 murine lymphoma model. […] Tumor nodule size was measured twice a week using digital calipers. Statistically significant differences compared to the control: * p < 0.05, ** p < 0.01.
The distribution of cells by cell cycle phases was evaluated using propidium iodide (PI) staining, as described in [19]. […] After incubation, the cells were resuspended in 70% ethanol and fixed for 2h at 4 °C. Cells were then washed twice with cold PBS, pH 7.4, and stained with 500 µL of cold propidium iodide (PI) solution (50 µg/mL PI, 1% Triton X-100, and 100 µg/mL RNase A in PBS). The cell cycle distribution of cells in samples was analyzed using an FACSCalibur Flow Cytometer (“BD Biosciences”, San Jose, CA, USA). The experiments were performed in triplicate.

[7] = system: BALB/c female mice; test: Glucocorticoid-induced osteoporosis model: bone and skin morphometry, body weight; assay type: in vivo; conditions: Dex 20 mg/kg
Excerpt: (§5) (A) H&E bone staining and quantification of cortical bone thickness. (B) Q-PCR analysis of Rankl, Mmp9, Tsc2, Trap, and Bglap mRNA expression in bone tissue. […] (C) H&E skin staining and quantification of dermal adipose thickness (50 images per treatment group of 10 animals). Statistically significant differences compared to the control: * p < 0.05, ** p < 0.01.
(§6) The protocol for the experiment was approved by the local N.N. Blokhin National Medical Research Center Ethics Committee and corresponded to the guidelines for the welfare and use of animals in cancer research adopted by The United Kingdom Coordinating Committee on Cancer Prevention Research. […] Body weight was recorded twice a week for toxicity control.
Bone and skin samples from the GIOP experiment were fixed in formaldehyde and embedded in paraffin, and sections were stained with hematoxylin and eosin. After formaldehyde fixation, the bone samples were decalcified in decalcification buffer (0.5 M EDTA, 0.7 mM NaOH, pH7.0) for 14 days, washed twice with PBS, and further processed according to the standard histology protocol. The dermal adipose and bone thickness were quantified in sections stained with hematoxylin and eosin. At least five individual fields per slide of each sample/treatment (at least 50 images/treatment group) were analyzed using Axioplan2 microscope software (“Carl Zeiss”, Jena, Germany). The dermal adipose or bone thickness in treated animals is presented as a percentage of the control animals.

[8] = system: FKBP51, GILZ, DDIT4 mRNA expression in K562 and Granta cells; test: Q-PCR of GR transactivation marker genes; assay type: cell-based; conditions: 4 h (FKBP51, GILZ) or 24 h (DDIT4); Dex 10 µM, 10S-E2 0.1 µM; vs control
Excerpt: as §1, §2, §3

[9] = system: P388 murine lymphoma; test: Transplantable P388 murine lymphoma model; assay type: in vivo, mice; conditions: Dex 1 mg/kg
Experimental: as §4
The protocol for the experiment was approved by the local N.N. Blokhin National Medical Research Center Ethics Committee and corresponded to the guidelines for the welfare and use of animals in cancer research adopted by The United Kingdom Coordinating Committee on Cancer Prevention Research. P388 cells were injected i.p. into 5-week-old female DBA/2 mice (“Stolbovaya Farm”, Stolbovaya, Russia). After 15 days, the cells were collected from the peritoneum, washed, and resuspended in PBS. For the experiments, 0.1 mL containing 2 million cells obtained from the ascites was inoculated s.c. in 5-week-old female BDF1 mice (“Stolbovaya Farm”, Stolbovaya, Russia). […] Body weight was recorded twice a week for toxicity determination. Tumor size was measured three times per week using digital calipers.

[10] = system: Rankl, Mmp9, Tsc2, Trap, Bglap mRNA expression in bone tissue; test: Glucocorticoid-induced osteoporosis model: Q-PCR of marker genes in bone tissue; assay type: in vivo, mice; conditions: 5 weeks, Dex 20 mg/kg
Experimental: as §5
Total RNA isolation from cell cultures and murine bones, reverse transcription, and Q-PCR were performed as described in [36]. […] Results were normalized to the expression of the housekeeping RPL27 и Rpl27 genes. The experiments were performed in triplicate.
as §6

[11] = i.p. every 24 h for 5 weeks, 10S-E2 10 mg/kg

| SMILES | DDIT4 expression [1] | IC50 [2] [µM] | decrease in DDIT4 expression [3] | GR phosphorylation level at Ser211 [4] | IC50 [5] [µM] | level of apoptosis (sub-G1-phase cell population) [6] | animal body weight vs control ([7]; GIOP study, 10S-E2 10 mg/kg i.p. every 24 h for 5 weeks) | loss of cortical bone thickness [7, 11] [%] | reduction of dermal adipose tissue / skin atrophy [7, 11] | expression of TA marker genes FKBP51, GILZ, DDIT4 [8] | animal body weight change vs control ([9]; P388 model, 10S-E2 10 mg/kg i.p. 3 times per week) | inhibition of tumor growth ([9]; s.c. P388 in BDF1 mice, i.p. 3 times per week, 10S-E2 10 mg/kg) | Bglap mRNA expression in bone tissue [10] | Mmp9 mRNA expression in bone tissue ([10]; 10S-E2 10 mg/kg) | Rankl mRNA expression in bone tissue ([10]; 10S-E2 10 mg/kg) | Trap mRNA expression in bone tissue ([10]; 10S-E2 10 mg/kg) | Tsc2 mRNA expression in bone tissue ([10]; 10S-E2 10 mg/kg) |
| --- | --- | --- | --- | --- | --- | --- | --- | --- | --- | --- | --- | --- | --- | --- | --- | --- | --- |
| OCCNCC(O)c1ccc(OCc2ccccc2)cc1 (stereo not drawn) [8S-E3, 1-(4-(benzyloxy)phenyl)-2-((2-hydroxyethyl)amino)ethanol] | strongly attenuated DDIT4 expression by more than three times | 80 to 120 | 1,5 fold | weak increase | 0.08 | – | – | – | – | – | – | – | – | – | – | – | – |
| C[C@@H]1C[C@H]2[C@@H]3CCC4=CC(=O)C=C[C@]4(C)[C@@]3(F)[C@@H](O)C[C@]2(C)[C@@]1(O)C(=O)CO [Dex, dexamethasone, reference compound] | – | – | – | weak increase | – | higher than that in the control samples | no statisticall y si gnificant differences; also recorded: similar | 30 | approximately 70% | 5-30 fold | no statisticall y si gnificant differences | 60–70% | Downregulation | tendency toward Mmp9 and Tsc2 upregulation | upregulation | upregulation | tendency toward Mmp9 and Tsc2 upregulation |
